Data: PubChem BioAssay (NCI)
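A five-concentration, 48-hour dose response in 96-well plates underlies each endpoint, interpolated linearly between surrounding concentrations. The concentration for full growth arrest is given as TGI.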

How the values were obtained:
Assay in all cases: DTP human tumour cell line panel, 48 h
DLD-1 colon = system: DLD-1 colon
DMS 114 small cell lung = system: DMS 114 small cell lung
KM20L2 colon = system: KM20L2 colon
LXFL 529 NSCLC = system: LXFL 529 NSCLC
M19-MEL melanoma = system: M19-MEL melanoma
RPMI-8226 leukemia = system: RPMI-8226 leukemia
RXF-631 renal = system: RXF-631 renal
SF-539 CNS = system: SF-539 CNS
SW-620 colon = system: SW-620 colon
UO-31 renal = system: UO-31 renal
XF 498 CNS = system: XF 498 CNS
DMS 273 small cell lung = system: DMS 273 small cell lung
SNB-78 CNS = system: SNB-78 CNS
HOP-18 NSCLC = system: HOP-18 NSCLC
HS 578T breast = system: HS 578T breast
T-47D breast = system: T-47D breast

| SMILES | TGI (DLD-1 colon) [µM] | TGI (DMS 114 small cell lung) [µM] | TGI (KM20L2 colon) [µM] | TGI (LXFL 529 NSCLC) [µM] | TGI (M19-MEL melanoma) [µM] | TGI (RPMI-8226 leukemia) [µM] | TGI (RXF-631 renal) [µM] | TGI (SF-539 CNS) [µM] | TGI (SW-620 colon) [µM] | TGI (UO-31 renal) [µM] | TGI (XF 498 CNS) [µM] | TGI (DMS 273 small cell lung) [µM] | TGI (SNB-78 CNS) [µM] | TGI (HOP-18 NSCLC) [µM] | TGI (HS 578T breast) [µM] | TGI (T-47D breast) [µM] |
| --- | --- | --- | --- | --- | --- | --- | --- | --- | --- | --- | --- | --- | --- | --- | --- | --- |
| CC1=C(C(=O)Nc2ccc([N+](=O)[O-])cc2)C(c2ccccc2F)C(C(=O)Nc2ccc([N+](=O)[O-])cc2)=C(C)N1 | > 100 | 87.8 | 29.8 | 59.6 | 55.5 | 27.5 | > 100 | > 100 | > 100 | 51.7 | 6.94 |  |  |  |  |  |
| Cc1cc(Cl)ccc1C1OC(=O)c2c1ccc1ccccc21 (stereo unspecified) | > 100 |  | > 100 | > 100 | > 100 | > 100 |  | > 100 | > 100 | > 100 | > 100 | > 100 |  |  |  |  |
| Nc1n[nH]c(CCc2nc(N)n[nH]2)n1 | > 100 | > 100 | > 100 | > 100 | > 100 | > 100 | > 100 | > 100 | > 100 | > 100 |  | > 100 | > 100 |  |  |  |
| COC(=O)c1ccc(NCc2cc(O)ccc2O)cc1 | 40.8 | 8.04 | > 72.7 | 17.9 | 33.7 | 34.7 |  | 13.5 | 23.4 | 26.3 | 9.63 | > 54.8 | 52.1 | 27.4 | 18.5 | 3.4 |
| CC(C)c1cc(OCC(O)CO)cc(C(C)C)c1 (stereo unspecified) | > 100 | > 100 | > 100 | > 100 | > 100 |  |  | > 100 | > 100 | > 100 | > 100 | > 100 | > 100 | > 100 |  |  |
| Cc1cccc(C(C)(C)C)c1NC(=O)CC1Sc2ccccc2NC1=O (stereo unspecified) | > 100 | 83 | > 100 | > 100 | > 100 | 46 | > 100 | > 100 | 32.6 | > 100 |  | > 100 |  | > 100 |  |  |
| Cc1ccccc1N=NC(C(=O)c1ccccc1)C(=O)c1ccccc1 | > 100 | 50.7 | 70.7 | > 100 | 42.5 | 60.9 | > 100 | 81.8 | > 100 | 50.2 | 55.1 | 62.3 |  |  |  |  |
| Cc1ccc(NC(=O)C(=O)Cc2cc[n+]([O-])cc2)cc1 | > 100 | > 100 | > 100 | > 100 | > 100 | > 100 |  | > 100 | > 100 | > 100 | > 100 | > 100 | > 100 | > 100 |  |  |
| O=[N+]([O-])c1cccc(C2=NOC3C4CCC(C4)C23)c1 (stereo unspecified) | > 100 | > 100 |  | > 100 | > 100 | > 100 | > 100 | > 100 | > 100 | > 100 |  | > 100 |  | > 100 |  |  |
| COc1ccc(CCNCCCC2c3ccccc3-c3ccccc32)cc1OC | 30.5 | 20.3 | 12.4 | 27.5 | 24.5 | 22 |  | 30.8 | 20.4 | 24.4 | 28.2 | 21.2 | 32.1 | 30.6 | 39.8 | 34.3 |
| CCC1CN2CCC3(c4ccccc4)CC(C(=O)OC)=CC1C23 (stereo unspecified) | 39 |  | 30.3 | 28.7 | 31.1 | > 100 | 28.5 | 31.3 | 31.8 | 27.1 | 18.2 |  | 44 | 35.1 |  |  |
| COc1ccc2c(c1)CCC(OS(=O)(=O)CC13CCC(CC1=O)C3(C)C)C2=O (stereo unspecified) | > 100 | 73.3 | 37.8 | > 100 | > 100 | 57.2 |  | 41.6 | 69.7 | > 100 | 93.9 | 58.4 |  | 78.2 |  |  |
| O=C(CC1C(=O)c2ccccc2C1=C1C(=O)c2ccccc2C1=O)c1ccccc1 (stereo unspecified) | > 100 | > 100 | > 100 | > 100 | > 100 | > 100 |  | > 100 | > 100 | > 100 | > 100 | > 100 | > 100 | > 100 |  |  |
| CCC(=O)N/N=C(\C=C\c1cccc(O)c1)c1sc(Nc2ccc(C)cc2[N+](=O)[O-])nc1C | > 100 | > 100 | > 100 | > 100 | > 100 | > 100 |  | > 100 | > 100 | > 100 |  | > 100 | > 100 | > 100 |  |  |
| N#CC1=C(Cl)NC(Cl)=C(C#N)C1c1c(Cl)cccc1Cl | 46.9 | 28.3 | 76.9 | > 100 |  | 46.4 |  | > 100 | 27 | > 100 | 35.5 | 34.5 | > 100 | 91.5 |  |  |
| Cc1cc(N(CCC#N)CCC#N)ccc1C=Nc1ccc(C(=O)NN2C(=O)/C(=C/c3ccc(N(CCC#N)CCC#N)cc3)N=C2c2cc([N+](=O)[O-])ccc2Cl)cc1 | > 100 | > 100 | > 100 | > 100 | > 100 | > 100 | > 100 | > 100 | > 100 | > 100 | > 100 | > 100 | > 100 | > 100 |  |  |
| O=C(/C=C1/Nc2ccc([N+](=O)[O-])cc2NC1O)c1cccc([N+](=O)[O-])c1 (stereo unspecified) | > 100 | > 100 | 96.2 | > 100 | > 100 |  |  | 87.2 | > 100 | > 100 | > 100 | > 100 | > 100 |  |  |  |
| O=C(Nc1ccn(CCI)c(=O)n1)c1ccccc1 | > 100 | > 100 | > 100 | > 100 | > 100 | > 100 |  | > 100 | > 100 | > 100 |  | > 100 | > 100 | > 100 |  |  |
